Structures are written as SMILES. Like-named read-outs stand apart in the source and are kept apart here.

The text below walks through data of article PMC9975698, “Hyperoside alleviates toxicity of β-amyloid via endoplasmic reticulum-mitochondrial calcium signal transduction cascade in APP/PS1 double transgenic Alzheimer's disease mice” (Redox Biology, 2023).

Common to all, as to format: in vivo
A short description of series [1]: Pharmacokinetics in brain after IV or IN administration. Particulars: 20 mg/kg, mice; for Tmax / k el / half-life: mouse, brain; for k el: read-out: Brain Ke (converted); for half-life: read-out: Brain t1/2 (converted). How it is done:
After tail vein injection or nasal administration, blood was collected at 5, 15 and 30 min, 1, 2, 4, 8, 12, 24, 48, 72, 120 and 168 h, for immediate centrifugation at 14,000 rpm for 5 min. The serum was harvested and stored at −20 °C until further processing. Brain tissue was collected and was thoroughly rinsed in saline to eliminate blood and blotted dry with filter paper. Each tissue sample was homogenized in saline (1:5, w/v) and stored at −20 °C until analysis. 50 μL of serum or 100 μL of brain tissue was put in a 1.5 mL EP tube, followed by the addition of 20 μL of internal standard solution (10 μM ISO). The protein was precipitated with 1 mL of ethyl acetate, vortexed for 5 min and centrifuged at 20,000 g (4 °C and 10 min). The supernatant solution was nitrogen blown to dry and re-suspended with 100 μL of 50% acetonitrile for centrifugation again. The supernatant was taken for analysis by using LC-MS/MS. HYP content was quantified using UHPLC-MS/MS system, which includes Agilent 1290 Infinity UHPLC, and Agilent 6460 Triple Quadrupole, equipped with an electrospray ionization interface used to generate positive ions for the determination of HYP. The compounds were analyzed by using the Agilent Zorbax Eclipse Plus C-18 column with a particle size of […] (flow rate: 0.35 mL/min). The mobile phase was set as follows: mobile phase A (0.1% formic acid in water) and mobile phase B (0.1% formic acid in ACN): 0–3 min, 10–30% B; 3–4 min, 70% B; 4–5 min, 30–70% B; 5–6 min, 70-10% B. The column and auto-sampler temperature were maintained at 30 °C and 4 °C, respectively. Data were analyzed by using Agilent MassHunter Workstation software B.01.03. The gas temperature was set at 300 °C with a flow rate of 11 L/min. Gases were set at 30 psi for the nebulizer, capillary, at 4000 V. For the HYP, the fragment was 170. The collision energy was set at 30; The mass transitions were as follows based on multiple reaction monitoring: m/z 464.38 → 299.9. For the Isorhamnetin (ISO), the fragment was 150. The collision energy was set at 30; The mass transitions were as follows based on multiple reaction monitoring: m/z 315.4 → 300.1, The measurements of HYP were done using the standard and linear least-squares regression curve.

Series [2] relates to APP/PS1 mice. Put plainly: GFAP immunofluorescent staining of brain tissues. Particulars: cortex and hippocampus, HYP nasal, 8 weeks. On the procedure:
All animal care and experimental procedures were performed in accordance with the “Institutional Animal Care and User Committee Guidelines” of the Macau University of Science and Technology. APP/PSEN1 (APP/PS1) mice (N000175) were purchased from the Nanjing Institute of Biomedical Sciences, Nanjing University, China, weighing 25 ± 5 g. The animals were housed in a temperature-controlled room with a 12 h light/dark cycle and given ad libitum food and water. Male mice were randomly divided into the following 6 experimental groups. (a) wild-type group (n = 6), (b) APP/PS1 group (n = 6), (c) HYP (20 mg/kg group) (n = 7), (d) HYP (40 mg/kg) group (n = 8), (e) HYP (80 mg/kg) group (n = 8) and (f) memantine (MEM) (10 mg/kg) positive control group (n = 8). HYP was dissolved in the solvent containing 10% DMSO, 40% PEG300 and 5% Tween-80 in PBS, and administrated via nasal injection for every 3 days with a volume of 0.5 μL/g of body weight for 8 consecutive weeks. Brain tissues from all treatment groups were fixed and embedded in paraffin for microtome sectioning and immunofluorescence staining. […] The coverslips were then mounted with FluorSave™ mounting media (Calbiochem, San Diego, CA, USA) for fluorescence imaging. […]

Series [3] has as its system APP/PS1 mice. Put plainly: Western blot of APP/GFAP/APP-β/BACE1 in cortex and hippocampus lysates. How it is done:
After HYP treatment, the cells were lysed with RIPA. Protein concentrations were determined by Bio-Rad protein assay (Bio-Rad Laboratories, CA, USA). After electrophoretic separation, the gels were blotted and stained with primary antibodies. Binding of antibodies was visualized with peroxidase-coupled secondary antibodies using ECL Western Blotting detection reagents (Invitrogen, Scotland, UK). Band intensities were quantified using ImageJ software. Data were obtained from three independent experiments. All animal care and experimental procedures were performed in accordance with the “Institutional Animal Care and User Committee Guidelines” of the Macau University of Science and Technology. APP/PSEN1 (APP/PS1) mice (N000175) were purchased from the Nanjing Institute of Biomedical Sciences, Nanjing University, China, weighing 25 ± 5 g. The animals were housed in a temperature-controlled room with a 12 h light/dark cycle and given ad libitum food and water. Male mice were randomly divided into the following 6 experimental groups. (a) wild-type group (n = 6), (b) APP/PS1 group (n = 6), (c) HYP (20 mg/kg group) (n = 7), (d) HYP (40 mg/kg) group (n = 8), (e) HYP (80 mg/kg) group (n = 8) and (f) memantine (MEM) (10 mg/kg) positive control group (n = 8). […]
A general note: A western blot detects proteins with antibodies after separation by electrophoresis.

Regarding `O=c1c(O[C@@H]2O[C@H](CO)[C@H](O)[C@H](O)[C@H]2O)c(-c2ccc(O)c(O)c2)oc2cc(O)cc(O)c12` [HYP, Quercetin-3-O-β-D-galactopyranoside], in series [1] (IN), the “Brain Cmax” value is on record as 12.76 ± 1.56 ng/m and the “Brain F (AUCIN/AUCIV ratio)” value is reported as 603.72%. Further, in series [1] (IV), the “Brain Cmax” value was found to be 12.82 ± 0.40 ng/mL, the Tmax (usually the time from dosing to the highest level) was 2 h, the k el is 1.94e-05 s⁻¹ and the half-life is 10.5 ± 1.63 h. For the same compound, in series [1] (inhaled or intranasal, IN), the Tmax was determined as 1 h, the k el was 5.56e-06 s⁻¹ and the half-life is 70.1 ± 5.04 h. Moreover, the “level of GFAP” value with APP/PS1 mice [2] was “decreased the level of GFAP in both the cortex and hippocampus”. In addition, in the series with APP/PS1 mice [3], the “level of BACE1 and APP-β proteins” value is “reduced the level of APP hydrolysis pathway-associated proteins such as BACE1 and APP-β”.
